Experiments:
[1] = tested on: PI3-K in BT20 cells (phosphorylation of AKT at serine 473); test: PI3-Kα Cellular Assay (AKT Ser473 phosphorylation ELISA in BT20 cells); format: cell-based, human; details: Homo sapiens, BT-20, pAKT Ser473 ELISA, 1 hour incubation
In short: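 Cells seeded overnight in 0.5% FBS, then exposed 1 h at 37 °C to an 11-concentration 1:3 dilution series, in duplicate.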

PI3-Kα = PI3-Kα (Mus musculus (Mouse), UniProt P42337); test: PI3-Kα Biochemical Assay (fluorescence polarization kinase assay)
Sequence of PI3-Kα (P42337 whole entry, the tested form may be a part): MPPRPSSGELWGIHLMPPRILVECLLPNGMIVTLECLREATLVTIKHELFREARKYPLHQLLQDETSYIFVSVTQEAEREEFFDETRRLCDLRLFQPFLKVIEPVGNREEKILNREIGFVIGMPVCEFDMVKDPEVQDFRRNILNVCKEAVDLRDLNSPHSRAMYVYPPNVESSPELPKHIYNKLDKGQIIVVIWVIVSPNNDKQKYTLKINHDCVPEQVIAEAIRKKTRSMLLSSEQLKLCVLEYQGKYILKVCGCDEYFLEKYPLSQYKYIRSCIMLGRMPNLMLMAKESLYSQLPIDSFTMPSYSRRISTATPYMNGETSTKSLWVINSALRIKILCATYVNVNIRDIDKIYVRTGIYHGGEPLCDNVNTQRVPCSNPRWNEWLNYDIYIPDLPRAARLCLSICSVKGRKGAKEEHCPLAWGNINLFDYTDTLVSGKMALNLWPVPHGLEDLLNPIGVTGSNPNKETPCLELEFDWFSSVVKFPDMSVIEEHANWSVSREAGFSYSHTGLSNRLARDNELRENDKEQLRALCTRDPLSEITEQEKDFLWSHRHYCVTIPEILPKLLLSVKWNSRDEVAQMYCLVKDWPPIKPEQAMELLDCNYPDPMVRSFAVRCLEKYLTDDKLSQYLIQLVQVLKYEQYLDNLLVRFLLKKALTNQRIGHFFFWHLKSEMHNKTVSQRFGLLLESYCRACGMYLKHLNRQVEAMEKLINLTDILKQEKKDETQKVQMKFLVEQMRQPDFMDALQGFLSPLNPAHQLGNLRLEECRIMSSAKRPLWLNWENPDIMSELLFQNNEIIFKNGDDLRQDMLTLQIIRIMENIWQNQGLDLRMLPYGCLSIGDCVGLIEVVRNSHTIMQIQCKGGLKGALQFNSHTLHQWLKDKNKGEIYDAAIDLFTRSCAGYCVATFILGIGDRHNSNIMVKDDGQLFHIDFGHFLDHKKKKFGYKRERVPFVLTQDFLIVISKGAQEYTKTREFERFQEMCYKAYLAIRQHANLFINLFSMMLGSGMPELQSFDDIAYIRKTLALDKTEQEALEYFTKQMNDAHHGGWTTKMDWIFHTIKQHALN
Sequence of PI3-Kα (P26450 whole entry partner, the tested form may be a part): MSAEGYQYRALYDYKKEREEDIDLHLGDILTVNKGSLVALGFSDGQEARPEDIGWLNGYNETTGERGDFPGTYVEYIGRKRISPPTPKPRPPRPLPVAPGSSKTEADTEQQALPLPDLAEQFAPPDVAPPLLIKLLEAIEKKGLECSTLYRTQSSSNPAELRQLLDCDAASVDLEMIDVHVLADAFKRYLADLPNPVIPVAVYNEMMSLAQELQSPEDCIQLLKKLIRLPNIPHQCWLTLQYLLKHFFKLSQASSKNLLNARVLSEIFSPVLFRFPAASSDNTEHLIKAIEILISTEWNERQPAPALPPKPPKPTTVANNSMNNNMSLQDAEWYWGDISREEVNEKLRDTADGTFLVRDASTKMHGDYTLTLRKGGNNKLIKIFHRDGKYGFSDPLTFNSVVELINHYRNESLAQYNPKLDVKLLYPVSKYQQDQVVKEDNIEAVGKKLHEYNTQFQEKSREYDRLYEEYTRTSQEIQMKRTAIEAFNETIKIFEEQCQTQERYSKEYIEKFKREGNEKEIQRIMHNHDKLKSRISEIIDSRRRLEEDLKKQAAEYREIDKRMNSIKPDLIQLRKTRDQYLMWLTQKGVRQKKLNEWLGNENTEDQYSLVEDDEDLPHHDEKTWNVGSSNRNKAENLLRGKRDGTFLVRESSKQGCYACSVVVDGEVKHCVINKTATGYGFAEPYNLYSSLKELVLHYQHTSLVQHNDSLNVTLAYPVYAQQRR
In short: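 Co-expressed mouse p110/p85 PI3-Kα (4 nM stock) acting on PI(4,5)P2 (60 μM stock) with ATP/MgCl2 in HEPES pH 7.4 buffer, 35 min at room temperature, then EDTA stop. PI(3,4,5)P3 product detected by displacement of TAMRA-PIP3 from Grip1 PH domain (FP, 535/580 nm). IC50 from sigmoidal fit of % inhibition.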

SMILES	IC50 [1] [nM]	IC50 (PI3-Kα) [nM]	inhibition at 10 µM (PI3-Kα; at 10 μM) [%]
CNc1nc(C)c2cc(-c3ccc(O)c(OC)c3)c(=O)n(C3CCCC3)c2n1 [Compound 108, 8-cyclopentyl-6-(4-hydroxy-3-methoxyphenyl)-4-methyl-2-(methylamino)pyrido[2,3-d]pyrimidin-7(8H)-one]	3.82	1.57	99
CCn1nccc1NC(=O)c1cc2c(C)nc(N)nc2n([C@H]2CC[C@H](O)CC2)c1=O [Compound 278, 2-amino-N-(1-ethyl-1H-pyrazol-5-yl)-8-(trans-4-hydroxycyclohexyl)-4-methyl-7-oxo-78-dihydropyrido[23-d]pyrimidine-6-carboxamide]	50.5	1.3	
Cc1nc(N)nc2c1cc(-c1cnn(CCO)c1)c(=O)n2C1CCCC1 [Compound 106, 2-Amino-8-cyclopentyl-6-(1-(2-hydroxyethyl)-1H-pyrazol-4-yl)-4-methylpyrido[2,3-d]pyrimidin-7(8H)-one]	495	45	
Cc1nc(N)nc2c1cc(-c1cnn(CC(C)(C)O)c1)c(=O)n2C1CCCC1 [Compound 240, 2-Amino-8-cyclopentyl-6-[1-(2-hydroxy-2-methyl-propyl)-1H-pyrazol-4-yl]-4-methyl-8H-pyrido[2,3-d]pyrimidin-7-one]	101	89	
CCn1cc(CNC(=O)c2cc3c(C)nc(NC)nc3n(C3CCCC3)c2=O)cn1 [Compound 281, 8-cyclopentyl-N-[(1-ethyl-1H-pyrazol-4-yl)methyl]-4-methyl-2-(methylamino)-7-oxo-7,8-dihydropyrido[2,3-d]pyrimidine-6-carboxamide]	> 10000	1200	
COc1ccc(-c2cc3c(C)nc(N)nc3n(C3CN(C(=O)OC(C)(C)C)C3)c2=O)cn1 [Compound 227]	318	29	
Cc1nc(N)nc2c1cc(-c1cnc3[nH]ccc3c1)c(=O)n2[C@H]1CC[C@H](O)CC1 [Compound 158, 2-amino-8-(trans-4-hydroxycyclohexyl)-4-methyl-6-(1H-pyrrolo[2,3-b]pyridin-5-yl)pyrido[2,3-d]pyrimidin-7(8H)-one]	31.9	1.3	
Cc1nc(N)nc2c1cc(Br)c(=O)n2[C@H]1CC[C@H](OCCO)CC1 [Compound 291, 2-amino-6-bromo-8-[trans-4-(2-hydroxyethoxy)cyclohexyl]-4-methylpyrido[2,3-d]pyrimidin-7(8H)-one]	96.5	55.2	
COc1ncc(-c2cc3c(C)nc(N)nc3n([C@H]3CC[C@H](OCCO)CC3)c2=O)cn1 [Compound 287, 2-amino-8-[trans-4-(2-hydroxyethoxy)cyclohexyl]-6-(2-methoxypyrimidin-5-yl)-4-methylpyrido[2,3-d]pyrimidin-7(8H)-one]	38.9	2.2	
Cc1nc(N)nc2c1cc(Br)c(=O)n2CC1CCOC1 (centres unmarked) [Compound 218, 2-amino-6-bromo-4-methyl-8-((tetrahydrofuran-3-yl)methyl)pyrido[2,3-d]pyrimidin-7(8H)-one]	1020	94	
Cc1nc(N)nc2c1cc(-c1cnc3[nH]ccc3c1)c(=O)n2C1CN(C(=O)OC(C)(C)C)C1 [Compound 228, tert-butyl 3-(2-amino-4-methyl-7-oxo-6-(1H pyrrolo[2,3-b]pyridin-5 yl)pyrido[2,3-d]pyrimidin-8(7H)-yl)azetidine-1-carboxylate]	256	38	
COc1ncc(-c2cc3c(C)nc(N)nc3n([C@H]3C[C@H](OCCO)C3)c2=O)cn1 [Compound 316, 2-amino-8-[trans-3-(2-hydroxyethoxy)cyclobutyl]-6-(2-methoxypyrimidin-5-yl)-4-methylpyrido[2,3-d]pyrimidin-7(8H)-one]	93.5	6.65	
CNc1nc(C)c2cc(C(=O)Nc3cc[nH]n3)c(=O)n(C3CCCC3)c2n1 [Compound 250, 8-Cyclopentyl-4-methyl-2-methylamino-7-oxo-7,8-dihydro-pyrido[2,3-d]pyrimidine-6-carboxylic acid (1H-pyrazol-3-yl)-amide]	16.4	2.34	
Cc1nc(NCC(C)(C)O)nc2c1cc(-c1cccc(O)c1)c(=O)n2C1CCCC1 [Compound 114, 8-Cyclopentyl-2-(2-hydroxy-2-methylpropylamino)-6-(3-hydroxyphenyl)-4-methylpyrido[2,3-d]-pyrimidin-7(8H)-one]	1180	110	
CCNc1nc(C)c2cc(CCCO)c(=O)n(C3CCCC3)c2n1 [Compound 129, 8-Cyclopentyl-2-(ethylamino)-6-(3-hydroxypropyl)-4-methylpyrido[2,3-d]pyrimidin-7(8H)-one]	2750	4	
Cc1nc(N)nc2c1cc(-c1cnc3[nH]ccc3c1)c(=O)n2C(C)C [Compound 210, 2-amino-8-isopropyl-4-methyl-6-(1H-pyrrolo[2,3-d]pyridin-5-yl)pyrido[2,3-d]pyrimidin-7(8H)-one]	6.77	2.3	
Cc1nc(N)nc2c1cc(-c1cnc3ccccc3c1)c(=O)n2CC(C)(C)O [Compound 173, 2-amino-8-(2-hydroxy-2-methylpropyl)-4-methyl-6-quinolin-3-ylpyrido[2,3-d]pyrimidin-7(8H)-one]	322	270	
COc1ccc(-c2cc3c(C)nc(N)nc3n(CC3CCOCC3)c2=O)cn1 [Compound 242, 2-Amino-6-(6-methoxy-pyridin-3-yl)-4-methyl-8-(tetrahydro-pyran-4-ylmethyl)-8H-pyrido[2,3-d]pyrimidin-7-one]	88.4	15	

The remaining compounds from weak to strong by IC50 [1], led by results:

IC50 [1] [nM]	IC50 (PI3-Kα) [nM]	inhibition at 10 µM (PI3-Kα; at 10 μM) [%]	SMILES
3450	170		Cc1nc(N)nc2c1cc(-c1cccc(Cl)n1)c(=O)n2C1CCCC1 [Compound 231, 2-Amino-6-(6-chloro-pyridin-2-yl)-8-cyclopentyl-4-methyl-8H-pyrido[2,3-d]pyrimidin-7-one]
1670	230		Cc1nc(N)nc2c1cc(Br)c(=O)n2C1CCOC1 (centres unmarked) [Compound 202, 2-amino-6-bromo-4-methyl-8-(tetrahydrofuran-3-yl)pyrido[2,3-d]pyrimidin-7(8H)-one]
397	12		Cc1nc(N)nc2c1cc(-c1cnn(CC(F)F)c1)c(=O)n2C1CCCC1 [Compound 237, 2-Amino-8-cyclopentyl-6-[1-(2,2-drfluoro-ethyl)-1H-pyrazol-4-yl]-4-methyl 8H-pyrido[2,3-d]pyrimidin-7-one]
211	110		Cc1nc(N)nc2c1cc(Br)c(=O)n2C1CCC(=O)CC1 [Compound 184, 2-amino-6-bromo-4-methyl-8-(4-oxocyclohexyl)pyrido[2,3-d]pyrimidin-7(8H)-one]
106	17		C=CCn1c(=O)c(-c2ccc(OC)nc2)cc2c(C)nc(NC)nc21 [Compound 110, 8-allyl-6-(6-methoxypyridin-3-yl)-4-methyl-2-(methylamino)pyrido[2,3-d]pyrimidin-7(8H)-one]
94.2	11		COc1ccc(-c2cc3c(C)nc(N)nc3n(CCC3CC3)c2=O)cn1 [Compound 233, 2-Amino-8-(2-cyclopropyl-ethyl)-6-(6-methoxy-pyridin-3-yl)-4-methyl-8H-pyrido[2,3-d]pyrimidin 7-one]
71.8	9.4		Cc1nc(N)nc2c1cc(-c1ccc(OC(C)C)nc1)c(=O)n2[C@H]1CC[C@H](O)CC1 [Compound 188, 2-amino-8(trans-4-hydroxycyclohexyl)-6-(6-isopropoxypyridin-3-yl)-4-methylpyrido[2,3-d]pyrimidin-7(8H)-one]
46.1	1.77		CCNc1nc(C)c2cc(-c3cnc4[nH]ccc4c3)c(=O)n(C3CCCC3)c2n1 [Compound 135, 8-cyclopentyl-2-(ethylamino)-4-methyl-6-(1H-pyrrolo[2,3-b]pyridin-5-yl)pyrido[2,3-d]pyrimidin-7(8H)-one]
45.6	4.6		CNc1nc(C)c2cc(-c3ccc(OC)nc3)c(=O)n(CC3CCOC3)c2n1 (centres unmarked) [Compound 216, 6-(6-methoxypyridin-3-yl)-4-methyl-2-(methylamino)-8-((tetrahydrofuran-3-yl)methyl)pyrido[2,3-d]pyrimidin-7(8H)-one]
30.5	2.9		Cc1nc(N)nc2c1cc(C(=O)Nc1ccn[nH]1)c(=O)n2C(C)C [Compound 279, 2-amino-8-isopropyl-4-methyl-7-oxo-N-1H-pyrazol-5-yl-7,8-dihydropyrido[2,3-d]pyrimidine-6-carboxamide]
28.3	0.59		Cc1nc(N)nc2c1cc(C(=O)Nc1ccn[nH]1)c(=O)n2[C@H]1CC[C@H](O)CC1 [Compound 251, 2-Amino-8-(trans-4-hydroxycyclohexyl)-4-methyl-7-oxo-N-1H-pyrazol-5-yl-7,8-dihydropyrido[2,3-d]pyrimidine-6-carboxamide]
21.2	2.7		CCOc1ccc(-c2cc3c(C)nc(N)nc3n([C@H]3CC[C@H](O)CC3)c2=O)cn1 [Compound 189, 2-amino-6-(6-ethoxypyridin-3-yl)-8-(trans-4-hydroxycyclohexyl)-4-methylpyrido[2,3-d]pyrimidin-7(8H)-one]
19.3	4.3		COc1ccc(-c2cc3c(C)nc(N)nc3n(C3CCC(=O)CC3)c2=O)cn1 [Compound 175, 2-amino-6-(6-methoxypyridin-3-yl)-4-methyl-8-(4-oxocyclohexyl)pyrido[2,3-d]pyrimidin-7(8H)-one]
4.84	0.524		Cc1nc(N)nc2c1cc(-c1cccc(O)c1)c(=O)n2C1CCCC1 [Compound 147, 2-Amino-8-cyclopentyl-6-(3-hydroxyphenyl)-4-methylpyrido[2,3-d]pyrimidin-7(8H)-one]
